Assay results as given in patent US6258786A, “13-dihydro-3' aziridino anthracyclines” (Pharmacia & Upjohn S.p.A., priority 1998, dated 2001).

Key:
Assay type in all cases: cell-based
[1] = tested on: panel of murine and human tumor cell lines; experiment: In vitro cytotoxicity on a panel of murine and human tumor cell lines
Text: The compounds according to the invention are useful in methods of treatment of the human or animal body by therapy. They are useful as anti-tumor agents. They are useful in the treatment of leukemia and solid tumors, such as colon, colon-rectal, ovarian, mammary, prostate, lung, kidney and also melanoma tumors. A human can therefore be treated by a method comprising administering thereto a therapeutically effective amount of a compound of the invention. The condition of the human patient can thus be improved. The dosage to be given can be ascertained using known dosage ranges in the field of anthracyclines, modified by reference to the activity shown by the present compounds in in vitro and in vivo anti-tumor tests. Suitable dosages are generally in the range of 1 to 200 mg/m^2 body surface, preferably from 1 to 100 mg/m^2, depending on the nature and severity of the disease being treated and on the general condition of the patient. The compounds of formula I were tested and found active in vitro against a panel of murine and human tumor cell lines, and in vivo on disseminated P388/DX murine leukemia.
(§1) 1. The results of in vivo test of Ia on disseminated P388/DX murine leukemia are shown in Tab.2.

LoVo = experiment: In vitro cytotoxicity, growth inhibition by SRB colorimetric assay, LoVo; settings: Homo sapiens, cells incubated with the compound for 1 h, at least two experiments, read-out: IC50 (50% inhibitory concentration), Mean ± SE
Procedure: as §1
(§2) ^1 Cells incubated with the compound for 1 h.
(§3) ^2 50% inhibitory concentration represents the mean ± SE from
(§4) dose-response curves of at least two experiments
^4 Growth inhibition determined by SRB colorimetric assay.

L1210 = experiment: In vitro cytotoxicity, growth inhibition by counting surviving cells, L1210; settings: Mus musculus, cells incubated with the compound for 1 h, at least two experiments, read-out: IC50 (50% inhibitory concentration), Mean ± SE
Procedure: as §1, §2, §3, §4
(§5) ^3 Growth inhibition determined by counting surviving cells.

JURKAT = experiment: In vitro cytotoxicity, growth inhibition by counting surviving cells, JURKAT; settings: Homo sapiens, cells incubated with the compound for 1 h, at least two experiments, read-out: IC50 (50% inhibitory concentration), Mean ± SE
Procedure: as §1, §2, §3, §4, §5

CEM = experiment: In vitro cytotoxicity, growth inhibition by counting surviving cells, CEM; settings: Homo sapiens, CCRF-CEM, cells incubated with the compound for 1 h, at least two experiments, read-out: IC50 (50% inhibitory concentration), Mean ± SE
Procedure: as §1, §2, §3, §4, §5

SMILES: CC(O)[C@]1(O)Cc2c(O)c3c(c(O)c2[C@@H](O[C@H]2C[C@H](N4CC4)[C@H](OS(C)(=O)=O)[C@H](C)O2)C1)C(=O)c1ccccc1C3=O (mixture of isomers) [Ia, 13(R/S)-Dihydro-4-Demethoxy-3'-Deamino-3'-Aziridinyl-4'-Methansulfonyl Daunorubicin]
- cytotoxicity / in vitro activity in words [1]: high cytotoxicity
- IC50 (LoVo): 20.3 ± 2 ng/mL
- IC50 (L1210): 3.76 ± 0.13 ng/mL
- IC50 (JURKAT): 4.87 ± 0.7 ng/mL
- IC50 (CEM): 5.86 ± 0.4 ng/mL
